Test results: patent US8143243B2, “Compounds for the treatment of hepatitis C” (Bristol-Myers Squibb Company, priority 2007, dated 2012)

What was measured:
HCV replicon cells = assay: HCV replicon FRET / luciferase assay; format: cell-based; details: Hepatitis C virus
Excerpt: FRET Assay Preparation. To perform the HCV FRET screening assay, 96-well cell culture plates were used. The FRET peptide (Anaspec, Inc.) (Taliani et al., Anal. Biochem. 1996, 240, 60-67) contains a fluorescence donor, EDANS, near one end of the peptide and an acceptor, DABCYL, near the other end. The fluorescence of the peptide is quenched by […] resonance energy transfer (RET) between the donor and the acceptor, but as the NS3 protease cleaves the peptide the products are released from RET quenching and the fluorescence of the donor becomes apparent. The assay reagent was made as follows: 5× cell Luciferase cell culture lysis reagent from Promega (#E153A) diluted to 1× with dH2O, NaCl added to 150 mM final, the FRET peptide diluted to 20 μM final from a 2 mM stock.
To prepare plates, HCV replicon cells, with or without a Renilla luciferase reporter gene, were trypsinized and placed into each well of a 96-well plate with titrated test compounds added in columns 3 through 12; columns 1 and 2 contained a control compound (HCV protease inhibitor), and the bottom row contained cells without compound. The plates were then placed in a CO2 incubator at 37° C.
Assays. Subsequent to addition of the test compounds described above (FRET Assay Preparation), at various times the plate was removed and Alamar blue solution (Trek Diagnostics, #00-100) was added per well as a measure of cellular toxicity. After reading in a Cytoflour 4000 instrument (PE Biosystems), plates were rinsed with PBS and then used for FRET assay by the addition of 30 ul of the FRET peptide assay reagent described above (FRET Assay Preparation) per well. The plate was then placed into the Cytoflour 4000 instrument which had been set to 340 excite/490 emission, automatic mode for 20 cycles and the plate read in a kinetic mode. Typically, the signal to noise using an endpoint analysis after the reads was at least three-fold. Alternatively, after Alamar blue reading, plates were rinsed with PBS, 50 ul of DMEM (high glucose) without phenol red was added and plates were then used for luciferase assay using the Promega Dual-Glo Luciferase Assay System.
Compound analysis was determined by quantification of the relative HCV replicon inhibition and the relative cytotoxicity values. To calculate cytoxicity values, the average Alamar Blue fluorescence signals from the control wells were set as 100% non-toxic. The individual signals in each of the compound test wells were then divided by the average control signal and multiplied by 100% to determine […]. To calculate the HCV replicon inhibition values, an average background value was obtained from the two wells containing the highest amount of HCV protease inhibitor at the end of the assay period. These numbers were similar to those obtained from naïve Huh-7 cells.
The background numbers were then subtracted from the average signal obtained from the control wells and this number was used as 100% activity. The individual signals in each of the compound test wells were then divided by the averaged control values after background subtraction and multiplied by 100% to determine percent activity. EC50 values for a protease inhibitor titration were calculated as the concentration which caused a 50% reduction in FRET or luciferase activity. The two numbers generated for the compound plate, percent cytoxicity and percent activity were used to determine compounds of interest for further analysis.

HCV NS5B = molecular target: T1, HCV NS5B (Hepatitis C virus genotype 1b, UniProt Q9WMX2); assay: HCV NS5B RdRp enzyme assay (standard / modified); format: biochemical
T1 construct: The protein was expressed with an 18 amino acid C-terminal truncation to enhance the solubility; made in house; host or cells: E. coli BL21 (DE3)
T1 sequence (Q9WMX2 2420-2992): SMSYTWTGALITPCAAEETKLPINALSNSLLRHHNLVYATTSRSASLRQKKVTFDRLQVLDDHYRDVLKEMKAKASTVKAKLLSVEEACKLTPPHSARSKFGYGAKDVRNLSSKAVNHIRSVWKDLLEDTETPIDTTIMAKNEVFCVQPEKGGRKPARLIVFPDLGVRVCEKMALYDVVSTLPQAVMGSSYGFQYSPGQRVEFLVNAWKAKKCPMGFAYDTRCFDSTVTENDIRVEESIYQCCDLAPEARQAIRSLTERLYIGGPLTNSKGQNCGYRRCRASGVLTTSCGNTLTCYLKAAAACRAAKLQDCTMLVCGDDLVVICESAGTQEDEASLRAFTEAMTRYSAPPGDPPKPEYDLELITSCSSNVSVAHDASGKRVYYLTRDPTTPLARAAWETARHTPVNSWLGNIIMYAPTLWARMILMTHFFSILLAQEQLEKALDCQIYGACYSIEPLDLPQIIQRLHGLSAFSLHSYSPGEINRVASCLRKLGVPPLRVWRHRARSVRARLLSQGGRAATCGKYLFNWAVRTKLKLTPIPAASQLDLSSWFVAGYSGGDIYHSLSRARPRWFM
Method: HCV NS5B RdRp cloning, expression, and purification. The cDNA encoding the NS5B protein of HCV, genotype 1b, was cloned into the pET21a expression vector. The protein was expressed with an 18 amino acid C-terminal truncation to enhance the solubility. The E. coli competent cell line BL21 (DE3) was used for expression of the protein. Cultures were grown at 37° C. for ˜4 hours until the cultures reached an optical density of 2.0 at 600 nm. The cultures were cooled to 20° C. and induced with 1 mM IPTG. Fresh ampicillin was added to a final concentration of 50 μg/ml and the cells were grown overnight at 20° C.
Cell pellets (3 L) were lysed for purification to yield 15-24 mgs of purified NS5B. The lysis buffer consisted of 20 mM Tris-HCl, pH 7.4, 500 mM NaCl, 0.5% triton X-100, 1 mM DTT, 1 mM EDTA, 20% glycerol, 0.5 mg/ml lysozyme, 10 mM MgCl2, 15 ug/ml deoxyribonuclease I, and Complete TM protease inhibitor tablets (Roche). After addition of the lysis buffer, frozen cell pellets were resuspended using a tissue homogenizer. To reduce the viscosity of the sample, aliquots of the lysate were sonicated on ice using a microtip attached to a Branson sonicator. The sonicated lysate was centrifuged at 100,000×g for 1 hr at 4° C. and filtered through a 0.2 μm filter unit (Corning).
The protein was purified using three sequential chromatography steps: Heparin sepharose CL-6B, polyU sepharose 4B, and Hitrap SP sepharose (Pharmacia). The chromatography buffers were identical to the lysis buffer but contained no lysozyme, deoxyribonuclease I, MgCl2 or protease inhibitor and the NaCl concentration of the buffer was adjusted according to the requirements for charging the protein onto the column. Each column was eluted with a NaCl gradient which varied in length from 5-50 column volumes depending on the column type. After the final chromatography step, the resulting purity of the enzyme is >90% based on SDS-PAGE analysis. The enzyme was aliquoted and stored at −80° C.
Standard HCV NS5B RdRp enzyme assay. HCV RdRp genotype 1b assays were run in a final volume of 60 μl in 96 well plates (Costar 3912). The assay buffer is composed of 20 mM Hepes, pH 7.5, 2.5 mM KCl, 2.5 mM MgCl2, 1 mM DTT, 1.6 U RNAse inhibitor (Promega N2515), 0.1 mg/ml BSA (Promega R3961), and 2% glycerol. All compounds were serially diluted (3-fold) in DMSO and diluted further in water such that the final concentration of DMSO in the assay was 2%. HCV RdRp genotype 1b enzyme was used at a final concentration of 28 nM. A polyA template was used at 6 nM, and a biotinylated oligo-dT12 primer was used at 180 nM final concentration. Template was obtained commercially (Amersham 27-4110). Biotinylated primer was prepared by Sigma Genosys. 3H-UTP was used at 0.6 μCi (0.29 μM total UTP). Reactions were initiated by the addition of enzyme, incubated at 30° C. for 60 min, and stopped by adding 25 μl of 50 mM EDTA containing SPA beads (4 μg/μl, Amersham RPNQ 0007). Plates were read on a Packard Top Count NXT after >1 hr incubation at room temperature.
Modified HCV NS5B RdRp enzyme assay. A modified enzyme assay was performed essentially as described for the standard enzyme assay except for the following: The biotinylated oligo dT12 primer was precaptured on streptavidin-coated SPA beads by mixing primer and beads in assay buffer and incubating at room temperature for one hour. Unbound primer was removed after centrifugation. The primer-bound beads were resuspended in 20 mM Hepes buffer, pH 7.5 and used in the assay at final concentrations of 20 nM primer and 0.67 μg/μl beads. Order of addition in the assay: enzyme (14 nM) was added to diluted compound followed by the addition of a mixture of template (0.2 nM), 3H-UTP (0.6 μCi, 0.29 μM), and primer-bound beads, to initiate the reaction; concentrations given are final. Reactions were allowed to proceed for 4 hours at 30° C.
IC50 values for compounds were determined using seven different [I]. […]

| SMILES | EC50 (HCV replicon cells) | IC50 (HCV NS5B) |
| --- | --- | --- |
| COc1ccc2c(c1)C=C(c1c(C(=O)N3C4CCC3CN(C)C4)cnn1C)Cn1c-2c(C2CCCCC2)c2ccc(C(=O)NS(=O)(=O)C3CC3)cc21 | 1 to 500 nM | 1 to 500 nM |
| COc1ccc2c(c1)C=C(c1c(C(=O)N3C4CCC3CN(C)C4)cnn1C)Cn1c-2c(C2CCCCC2)c2ccc(C(=O)NS(=O)(=O)N3CCCC3)cc21 | 1 to 500 nM | 1 to 500 nM |
| COc1ccc2c(c1)C=C(c1c(C(=O)N3C4COCC3COC4)cnn1C)Cn1c-2c(C2CCCCC2)c2ccc(C(=O)NS(=O)(=O)CC(C)C)cc21 | 1 to 500 nM | 1 to 500 nM |
| COc1ccc2c(c1)C=C(c1c(C(=O)N3C4CCC3CN(C)C4)cnn1C)Cn1c-2c(C2CCCCC2)c2ccc(C(=O)NS(=O)(=O)C3CCC3)cc21 | 1 to 500 nM | 1 to 500 nM |
| COc1ccc2c(c1)C=C(c1c(C(=O)N3C4CCCC3COC4)cnn1C)Cn1c-2c(C2CCCCC2)c2ccc(C(=O)NS(=O)(=O)C3CCC3)cc21 | 1 to 500 nM | 1 to 500 nM |
| COc1ccc2c(c1)C=C(c1c(C(=O)N3C4CCCC3COC4)cnn1C)Cn1c-2c(C2CCCCC2)c2ccc(C(=O)NS(=O)(=O)C3CCCC3)cc21 | 1 to 500 nM | 1 to 500 nM |
| COc1ccc2c(c1)C=C(c1c(C(=O)N3C4COCC3COC4)cnn1C)Cn1c-2c(C2CCCCC2)c2ccc(C(=O)NS(=O)(=O)C3CCC3)cc21 | 1 to 500 nM | 1 to 500 nM |
| COc1ccc2c(c1)C=C(c1sccc1C(=O)N1C3CCC1CN(C)C3)Cn1c-2c(C2CCCCC2)c2ccc(C(=O)NS(=O)(=O)C(C)C)cc21 | 1 to 500 nM | 1 to 500 nM |
| COc1ccc2c(c1)C=C(c1c(C(=O)N3C4CCC3CN(C)C4)cnn1C(C)C)Cn1c-2c(C2CCCCC2)c2ccc(C(=O)NS(=O)(=O)C(C)C)cc21 | 1 to 500 nM | 1 to 500 nM |
| COc1ccc2c(c1)C=C(c1c(C(=O)N3CC4CCC(C3)N4C)cnn1C(C)C)Cn1c-2c(C2CCCCC2)c2ccc(C(=O)NS(=O)(=O)C(C)C)cc21 | 1 to 500 nM | 1 to 500 nM |
| COc1ccc2c(c1)C=C(c1c(C(=O)N3C4COCC3COC4)cnn1C(C)C)Cn1c-2c(C2CCCCC2)c2ccc(C(=O)NS(=O)(=O)C(C)C)cc21 | 1 to 500 nM | 1 to 500 nM |
| COc1ccc2c(c1)C=C(c1c(C(=O)N3C4COCC3COC4)cnn1C(C)C)Cn1c-2c(C2CCCCC2)c2ccc(C(=O)NS(=O)(=O)CC(C)C)cc21 | 1 to 500 nM | 1 to 500 nM |
| COc1ccc2c(c1)C=C(c1c(C(=O)N3[C@@H]4CC[C@H]3CN(C)C4)cnn1C(C)C)Cn1c-2c(C2CCCCC2)c2ccc(C(=O)NS(=O)(=O)CC(C)C)cc21 | 1 to 500 nM | 1 to 500 nM |
| COc1ccc2c(c1)C=C(c1c(C(=O)N3C[C@H]4CC[C@@H](C3)N4C)cnn1C(C)C)Cn1c-2c(C2CCCCC2)c2ccc(C(=O)NS(=O)(=O)CC(C)C)cc21 | 1 to 500 nM | 1 to 500 nM |
| COc1ccc2c(c1)C=C(c1c(C(=O)N3[C@@H]4CC[C@H]3C[C@@](C)(O)C4)cnn1C(C)C)Cn1c-2c(C2CCCCC2)c2ccc(C(=O)NS(=O)(=O)C(C)C)cc21 | 1 to 500 nM | 1 to 500 nM |
| COc1ccc2c(c1)C=C(c1c(C(=O)N3C4C=C(C)CC3CC4)cnn1C(C)C)Cn1c-2c(C2CCCCC2)c2ccc(C(=O)NS(=O)(=O)C(C)C)cc21 (stereo not shown) | 1 to 500 nM | 1 to 500 nM |
| COc1ccc2c(c1)C=C(c1c(C(=O)N3[C@@H]4CC[C@H]3C[C@@](C)(O)C4)cnn1C(C)C)Cn1c-2c(C2CCCCC2)c2ccc(C(=O)NS(=O)(=O)CC(C)C)cc21 | 1 to 500 nM | 1 to 500 nM |
| COc1ccc2c(c1)C=C(c1c(C(=O)N3C4C=C(C)CC3CC4)cnn1C(C)C)Cn1c-2c(C2CCCCC2)c2ccc(C(=O)NS(=O)(=O)CC(C)C)cc21 (stereo not shown) | 1 to 500 nM | 1 to 500 nM |
| COc1ccc2c(c1)C=C(c1c(C(=O)N3C4CCC3CN(C)C4)c(C)nn1C)Cn1c-2c(C2CCCCC2)c2ccc(C(=O)NS(=O)(=O)C(C)C)cc21 | 1 to 500 nM | 1 to 500 nM |
| COc1ccc2c(c1)C=C(c1c(C(=O)N3C4CCC3CN(C)C4)ccn1C(C)C)Cn1c-2c(C2CCCCC2)c2ccc(C(=O)NS(=O)(=O)C(C)C)cc21 | 1 to 500 nM | 1 to 500 nM |
| COc1ccc2c(c1)C=C(c1c(C(=O)N3C4CCCC3COC4)cnn1CC(F)(F)F)Cn1c-2c(C2CCCCC2)c2ccc(C(=O)NS(=O)(=O)C(C)C)cc21 | 1 to 500 nM | 1 to 500 nM |
| COc1ccc2c(c1)C=C(c1c(C(=O)N3C4CCC3CN(C)C4)cnn1CC(F)(F)F)Cn1c-2c(C2CCCCC2)c2ccc(C(=O)NS(=O)(=O)C(C)C)cc21 | 1 to 500 nM | 1 to 500 nM |
| COc1ccc2c(c1)C=C(c1c(C(=O)N3CC4CCC(C3)N4C)cnn1CC(F)(F)F)Cn1c-2c(C2CCCCC2)c2ccc(C(=O)NS(=O)(=O)C(C)C)cc21 | 1 to 500 nM | 1 to 500 nM |
